{"source": "paper PMC11079064", "about": "“Discovery of a brain penetrant small molecule antagonist targeting LPA1 receptors to reduce neuroinflammation and promote remyelination in multiple sclerosis” (Scientific Reports, 2024)", "key": {"[1]": {"target": "T1, human LPA1 (Homo sapiens, UniProt Q92633)", "T1 construct": "expressed in transfected cells", "T1 sequence (Q92633 whole entry)": "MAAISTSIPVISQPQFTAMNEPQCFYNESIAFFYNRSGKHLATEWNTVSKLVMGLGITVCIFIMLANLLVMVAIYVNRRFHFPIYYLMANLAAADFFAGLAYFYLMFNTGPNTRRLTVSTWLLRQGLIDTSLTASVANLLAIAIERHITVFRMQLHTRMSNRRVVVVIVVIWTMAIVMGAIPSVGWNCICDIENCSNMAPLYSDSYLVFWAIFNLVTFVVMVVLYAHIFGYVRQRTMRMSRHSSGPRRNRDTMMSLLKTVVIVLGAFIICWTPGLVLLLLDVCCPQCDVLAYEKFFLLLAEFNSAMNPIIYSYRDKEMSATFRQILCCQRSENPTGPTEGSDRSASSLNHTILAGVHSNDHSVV", "assay": "Competitive membrane filter radioligand binding assay", "details": "membranes from cells overexpressing human LPA1, LPA1 selective radioligand", "experimental": "Binding assay: Membranes were prepared from B103 cells stably expressing human LPA1 receptor. Cells were resuspended in a hypotonic buffer containing 0.25 M sucrose/0.2 mM EDTA. After 30 min on ice, cells were centrifuged at 41,415 × g. Membrane pellet was resuspended in 20 mM HEPES, pH 7.4 storage buffer and centrifuged at 41,415 × g. Membranes were resuspended in storage buffer + 1 mM dithiothreitol. Protein was quantified using the DC Protein Assay (Bio-Rad, Hercules, CA), aliquoted, and stored at – 80 °C until assay. A tritiated LPA1 selective antagonist[10] was used as radiolabeled ligand. […] The plates were shaken at 300 rpm for 2 h at room temperature. GF/B plates assay filter plates (Perkin Elmer, Boston, MA, Waltham, MA) were prepared by adding 50 µl of 0.5% polyethylenimine (Millipore Sigma, St. Louis, MO) and incubated at room temperature for > 30 min. The assay was terminated by vacuum filtration (Brandel Harvester). Plates were washed 3 × with 2 ml ice cold buffer containing 50 mM HEPES + 100 mM NaCl + 2 mM EDTA, pH 7.4. Once dry, 50 µl of Betaplate Scintillation Cocktail (Perkin Elmer, Boston, MA) was added to each well. After a 20 min incubation, plates were read on the Perkin Elmer TopCount."}, "[2]": {"test_system": "rat OPCs", "assay": "OPC-macrophage Transwell co-culture", "format": "cell-based", "details": "in presence of macrophages, 300 nM", "description": "Following PDGF withdrawal, we observed a 41% decrease in the number of MBP^+ oligodendrocytes when co-cultured with macrophages.\nOPCs were isolated as previously described. Cells were plated on the membrane layer of poly-L-lysine (Millipore Sigma, St. Louis, MO) coated Transwell culture plates (VWR, Radnor, PA) at a seeding density of 1 × 10^6 cells per well. Transwell culture plates have microporous membrane which allows for factors to flow between the top and bottom chamber. This permits us to minimize direct contact between the macrophage and OPCs while allowing for a constant, renewable source unlike conditioned media which can be depleted. […]\nIsolation of macrophages. […] Differentiated oligodendrocytes were detected with a rat monoclonal antibody to MBP (Millipore Sigma, St. Louis, MO) and OPCs were detected with a rabbit monoclonal antibody to PDGFRα (Santa Cruz Biotechnology, Dallas, TX). Macrophages were detected with CD68 (Santa Cruz Biotechnology, Dallas, TX). […] Images were acquired using a 20× objective, each well was read in a 5 × 5 matrix. Data were analyzed using GraphPad Prism (La Jolla, CA) and statistical significance was determined by ANOVA."}, "[3]": {"test_system": "MOG-EAE mouse model", "assay": "MOG-EAE mouse model, body weight and clinical score", "format": "in vivo", "description": "This model recapitulates several of the features thought to occur in MS and is a widely used model of inflammatory demyelination.\nOn Day 0, EAE was induced using a MOG35–55/CFA Emulsion PTX Hooke Kit™ (Hooke Laboratories, Lawrence, MA). Briefly, per manufacturer’s instructions, each mouse was administered a total of 0.2 ml emulsion delivered via dorsal subcutaneous injections of 0.1 ml each to the mid-scapula and lower lumbar regions. Pertussis toxin was prepared per lot-specific instructions and administered via intraperitoneal injection of 0.1 ml (200 ng) on Day 0, 2 h post-MOG administration, and again on Day 1, 24 h post-MOG.\nEach treatment group contained 12 mice, except for the age-matched control group which contained 8 mice.\nBody weights and clinical scores were recorded daily."}, "[4]": {"test_system": "MOG-EAE mouse model", "assay": "MOG-EAE mouse model, g-ratios by electron microscopy", "format": "in vivo", "description": "In control, non-EAE mice, 90.9% of the axons were myelinated (g-ratio < 1). In vehicle treated MOG-EAE mice, only 73.4% of axons were myelinated.\nRemyelinated axons canonically have thin myelin[41]. As such, we examined axons with g-ratios ≥ 0.8 but less than 1 as a surrogate measure of a remyelinating axon.\nTo confirm this, g-ratios in the optic nerve were similarly quantified. […] In non-MOG-EAE mice, 86.4% of the axons were myelinated. […] At 0.3 mg/kg, 85.5% were myelinated. When thinly myelinated axons were quantified, 30.2% in the MOG-treated vehicle group were observed, compared to 50.7% in the non-MOG control.\nStudy termination was the last day that clinical scores were determined for all study animals (Day 24). Since VEP recordings required several days (Days 21–24), oral dosing continued through perfusion, which was performed on Day 24 or Day 25. On Day 24 or 25, and following completion of VEP recordings, mice were deeply anesthetized with isoflurane anesthesia and whole body perfused with EM grade Karnovsky’s fixative (3% glutaraldehyde, 2% paraformaldehyde in 0.1 M phosphate buffer, pH 7.4; part # 15732-10; Electron Microscopy Sciences, Hatfield, PA). Spinal columns and optic nerves were collected and stored in fixative at 4 °C until further processing. After at 3–5 days in fixative, spinal cords were isolated and dissected from the vertebrae. Approximately 2 mm of the most caudal lumbar region was trimmed and segmented and, along with the optic nerves, shipped to Charles River Laboratories (Durham, NC) for processing for and imaging by electron microscopy.\nThe blocks were polymerized overnight at ~ 85 °C, and semi-thin sections (~ 1 μm, one per tissue) prepared and stained with toluidine blue using standard protocols. Semi-thin images were evaluated, and the most caudal region was identified as the region of focus for thin sections. Thin sections of ~ 100 nm were prepared using standard protocols and the grids were imaged at 1500 × on a JEOL JEM-1400 + transmission electron microscope fitted with an AMT 16 MP digital camera system. The direct magnification used was 1500 × or 4000 × for spinal cord and optic nerve, respectively.\nDigital EM images were analyzed using ImageJ (NIH, Bethesda, MD) measure the circumference of the axon and, when present, the myelin sheath, and g-ratios were calculated. For spinal cord analysis, 4 representative images were analyzed per animal and the results pooled, and the percentages calculated from the animal total. For optic nerve analysis, 1 representative image was analyzed per optic nerve and each optic nerve was treated as a separate data point."}}}
{"smiles": "COc1ccc(NC(=O)N(c2ccccc2C(C)C)C2CCC(C(=O)O)CC2)c(OC(F)F)n1", "note": "(stereo not shown) [PIPE-791]", "values": [{"measurement": "IC50", "setting": "[1]", "result": 2.63, "unit": "nM"}, {"measurement": "increase in differentiation versus vehicle treated cultures", "setting": "[2]", "result": 2.1, "unit": "fold"}, {"measurement": "clinical score by day 24", "setting": "[3]; 0.3 mg/kg oral once daily", "result": 1.5}, {"measurement": "disease onset", "setting": "[3]; 0.3 mg/kg oral once daily", "result": 14, "unit": "days"}, {"measurement": "peak clinical score", "setting": "[3]; 0.3 mg/kg oral once daily", "result": 2.1}, {"measurement": "clinical score at study end", "setting": "[3]; 3 mg/kg oral once daily", "result": 1.5}, {"measurement": "disease onset", "setting": "[3]; 3 mg/kg oral once daily", "result": 14, "unit": "days"}, {"measurement": "peak clinical score", "setting": "[3]; 3 mg/kg oral once daily", "result": 1.4}, {"measurement": "cumulative body weight (day 0 to 24)", "setting": "[3]; 0.3 and 3 mg/kg oral once daily", "result": "Significant increases"}, {"measurement": "myelinated axons, optic nerve", "setting": "[4]; 0.3 mg/kg", "result": 85.5, "unit": "%"}, {"measurement": "thinly myelinated axons, optic nerve", "setting": "[4]; 0.3 mg/kg", "result": 44.7, "unit": "%"}, {"measurement": "myelinated axons, optic nerve", "setting": "[4]; 3 mg/kg", "result": 86.1, "unit": "%"}, {"measurement": "thinly myelinated axons, optic nerve", "setting": "[4]; 3 mg/kg", "result": 50.6, "unit": "%"}]}
